This note sets out measurements from patent publication US20120190752A1, “EXO-S-MECAMYLAMINE METHOD, USE, AND COMPOUND FOR TREATMENT” (Targacept Inc., priority 2009, published 2012).

The experiment relates to subjects with major depressive disorder (MDD) who were inadequate responders to citalopram. The experiment is described as follows: SIS (Sheehan Irritability Scale), total and individual items, Phase 2b add-on trial. The conditions noted are these: for SIS Difference vs placebo / SIS Adj. Mean change: ITT; for SIS Difference vs placebo: Week 8 to Week 16 LOCF; for SIS Adj. Mean change: change from Week 8 (double-blind baseline) to Week 16 LOCF, add-on to citalopram. Set-up: SIS Adj. Mean change / SIS total score change Adjusted Mean / SIS Anger With Others change Adjusted Mean / SIS Anger With Self change Adjusted Mean / SIS Edginess change Adjusted Mean / SIS Irritability change Adjusted Mean / SIS Moodiness change Adjusted Mean / SIS Temper change Adjusted Mean: scale not given here. It counts as in vivo, human. Here is the method:
In more detail, a multi-center double-blind, randomized, placebo-controlled, parallel group, flexible dose titration study of TC-5214 as adjunctive therapy in subjects with major depressive disorder (MDD) who were inadequate responders to citalopram was conducted in centers in the US and India. The study consisted of a screening period, baseline/washout period, open-label phase, double-blind phase, and a follow-up visit. Subject participation in the study could continue for up to 16 weeks of treatment. Following a washout period of up to 28 days for other antidepressants, subjects with MDD and a MADRS total score >/=28 and a Clinical Global Impression-Severity (CGI-S) score >/=4 were enrolled on Day 1 into an open-label citalopram-only phase of the study. This phase lasted 8 weeks, with citalopram (CIT) dose increased from a once-daily dose of 20 mg (Day 1 through Week 4) to 40 mg (Week 4 through Week 8). A total of 579 subjects entered the open-label citalopram phase. At Week 8, subjects who tolerated 40 mg CIT, but whose MADRS score was reduced <50% from baseline and no lower than 17, and CGI-S≧4, were considered inadequate responders. These subjects (n=270) were randomized in a double-blind fashion to receive either placebo or TC-5214-23 as add-on therapy to continued CIT. The double-blind phase of the study also lasted 8 weeks (Week 8 to Week 16). Study drug, TC-5214-23 or placebo, was started at 2 mg daily (1 mg twice per day [BID] dosing), added on to continuing CIT (40 mg PO qd). After 2 weeks of treatment, the dose of TC-5214 could be increased to 4 mg (2 mg BID) or continued unchanged, with up-titration based upon good tolerability and inadequate therapeutic response. After a further 2 weeks, the dose of TC-5214 could be increased again to 8 mg (4 mg BID) if judged appropriate by the investigator, based upon good tolerability and inadequate therapeutic response. At any time during the double-blind phase of the study, placebo or TC-5214-23 could be reduced to the previous dose level following the emergence of unacceptable adverse events (AEs). […] At this follow-up, any signs or symptoms of relapse were evaluated. If a subject was prematurely discontinued from the study between Week 8 and Week 16 for any reason, the investigator was to make every effort to perform all evaluations as per protocol, assuming the subject had reached the end of the double-blind add-on treatment phase. These evaluations were to be made as soon as possible and within 2 weeks of discontinuation. […] There was no meaningful difference in results as a function of age, gender, site, or smoking status. [table] With regard to efficacy endpoints, the following tables present efficacy used in the ITT (Intent-to-Treat) and PP (Per Protocol) populations unless otherwise specific. The primary inference was based upon Week 16 visit using the ITT population. Change from baseline was obtained by subtracting the baseline values from the individual on-treatment values. Change from Week 16 was obtained by subtracting the Week 16 values from the individual follow-up visit (Week 18/19) values. If either the baseline or Week 16 or on-treatment or follow-up value was missing, the change from baseline or Week 16 value was also set to missing. To account for missing data, the last observation carry forward (LOCF) method was used for the ITT and PP populations. Thus, the last available on-therapy observation for a subject, including the observation at premature discontinuation, was used to estimate subsequent missing data points. For efficacy, baseline data were collected at Week 8 in the double-blind augmentation phase electronic case report form pages. For SIS, the endpoint was the change from Week 8 (double-blind baseline) to Week 16 of the SIS. Changes were analyzed using ANCOVA. Each SIS item score was also analyzed using ANCOVA. […]

The mark [1] stands for this setting: ITT Population, Double Blind Week 16 LOCF, change from Week 8 (double-blind baseline).
The mark [2] stands for this setting: ITT Population, Double Blind Week 18 LOCF (Follow-up).
Where [3] appears, read: ITT and PP populations, result in words.
The mark [4] stands for this setting: PP Population, Double Blind Week 16 LOCF, change from Week 8 (double-blind baseline).
Setting [5] is: PP Population, Double Blind Week 18 LOCF (Follow-up).

For `CNC1(C)C2CCC(C2)C1(C)C` (stereo in doubt) [TC-5214, (S)—N,2,3,3-tetramethylnorbornan-2-amine], the “SIS Difference vs placebo” value was −8.54 (−11.65, −5.44) and the “SIS Adj. Mean change” value was −18.21 (1.12). For the same compound, under setting [1], the “SIS total score change Adjusted Mean” value is on record as −18.21; the “SIS total score change Mean Difference between TC-5214 and Placebo” value is recorded as 8.76. For the same compound, under setting [2], the “SIS total score change Adjusted Mean” value was −0.68; the “SIS total score change Mean Difference between TC-5214 and Placebo” value is recorded as −0.51. For the same compound, under setting [3], the “SIS total score change from baseline compared with placebo” value was “statistically significant decreases (improvements)” and the “each SIS individual item change from baseline compared with placebo” value is “statistically significant decreases (improvements)”. Under “listed as TC-5214 + CIT”, the “SIS Difference vs placebo” value is −8.54 and the “SIS Adj. Mean change” value is −18.21. Further, under setting [4], the “SIS total score change Adjusted Mean” value is given as −19.96; the “SIS total score change Mean Difference between TC-5214 and Placebo” value came out at 10.04. Further, under setting [5], the “SIS total score change Adjusted Mean” value is given as −0.77; the “SIS total score change Mean Difference between TC-5214 and Placebo” value is reported as −0.34.
